According to patent publication US20040132697A1, “Treatment of female sexual dysfunction” (Pfizer Inc., priority 2002, published 2004):
Structures can show the parent of a compound that is named as a salt.

Legend:
[1] = test system: anaesthetised rabbit model of female sexual arousal; assay: Anaesthetised rabbit model of female sexual arousal: pelvic nerve stimulated genital blood flow (laser Doppler); type: in vivo; conditions: for Potentiation of pelvic nerve stimulated increases in vaginal blood flow (% increase over basal increase): i.v. infusion, n=4
Description: We have developed an animal model that mimics the physiological arousal response observed during female sexual arousal and directly reflects the clinical data obtained in human volunteers. The model uses Laser Doppler technologies to record small changes in vaginal and clitoral blood flow induced by pelvic nerve stimulation or vasoactive neurotransmitters. During sexual arousal, there is an increase in genital blood flow resulting from increased innervation from the pelvic nerve. The pelvic nerve-stimulated increase in vaginal and clitoral blood flow, observed in the animal model, represents the endogenous vascular effects observed during female sexual arousal. Therefore this model can be used to firstly, identify the mechanisms involved in the regulation of vaginal and clitoral blood flow and secondly, to validate novel approaches for the enhancement of genital blood flow.
(a) The Experimental Details are Described in European patent application EP 1 097 719 A1, Paragraphs [0495]-[0500]
(b) Infusion of Test Compound to Achieve Free Plasma Concentration Equivalent to 0.1 to 100 Times the pA2 α1A and/or α1L Adrenergic Receptors.
To achieve steady state plasma concentrations of the test compound, a loading dose was administered followed by infusion of a steady state dose. The test compound was made up in acidified saline (5% 1M HCl in saline) and details of the infusion protocols are given in the Table below. Test compound and vehicle controls were infused at the same rate. The test compound was infused for 15 minutes prior to pelvic nerve stimulation.
All data are reported as mean±s.e.m. (Standard error of the mean). Significant changes were identified using Student's t-tests (independent).
Compound 1, a potent and selective α1A and/or α1L adrenergic receptor antagonist, enhanced pelvic nerve stimulated (PNS) increases in genital blood flow in the anaesthetised rabbit model of sexual arousal. Repetitive PNS at 15 minute intervals induced reproducible increases in genital blood flow (Open Bar). […] The percentage increase over basal stimulations are showin in table 1 below. […] Data expressed as mean±sem (n=4); all changes were monitored using laser Doppler technologies.

FSAD = conditions: Rosen, R. C. et al (1999) J. Sex Marital Therapy 25, 137-144; cited from earlier work

Compound | Clitoral blood flow ([1]; data not shown) | Cardiovascular effects ([1]; during infusion) | Potentiation of pelvic nerve stimulated increases in vaginal blood flow (% increase over basal increase) ([1]; free plasma concentration 0.1 × pA2 α1A and/or α1L) [%] | Potentiation of pelvic nerve stimulated increases in vaginal blood flow (% increase over basal increase) ([1]; free plasma concentration 1 × pA2 α1A and/or α1L) [%] | Potentiation of pelvic nerve stimulated increases in vaginal blood flow (% increase over basal increase) ([1]; free plasma concentration 10 × pA2 α1A and/or α1L) [%] | Potentiation of pelvic nerve stimulated increases in vaginal blood flow (% increase over basal increase) ([1]; free plasma concentration 100 × pA2 α1A and/or α1L) [%] | Pelvic nerve stimulated (PNS) increases in genital blood flow ([1]; submaximal stimulation (eg 4 Hz), versus time matched or vehicle controls) | Effect on FSAD in small pilot study (FSAD)
COc1cc(C2CC2)c2c(=O)[nH]c(N3CCc4nc(CN5CCOCC5)ccc4C3)nc2c1 [Compound 1, 5-cyclopropyl-7-methoxy-2-(2-(4-morpholinylmethyl)-7,8-dihydro[1,6]naphthyridin-6(5H)-yl)-4(3H)-quinazolinone] | increased | No significant cardiovascular effects | 39 | 102 | 104 | 213 | enhanced | 
Cc1ccc(N(CC2=NCCN2)c2cccc(O)c2)cc1 [Phentolamine mesylate] |  |  |  |  |  |  |  | mild improvements
